From patent US20110135583A1, “Anionic Isosorbide Derivatives and Their Use (II)” (COGNIS IP […], priority 2009, published 2011) come the findings set out here.

The data set is described as follows: Foam quality and foam volume test of the isosorbide sulfosuccinate. Format: physicochemical. Conditions: 2.5% active substance in water, stirred to foam under standard conditions. The method, then:
The foam quality and foam volume of this surfactant was tested as follows:
The isosorbide sulfosuccinate is dissolved in water at a rate of 2.5% active substance, and stirred to foam under standard conditions. According to a visual evaluation the surfactant of Example 1 has a foam quality of 4-5 on a scale of 1 (small bubbles, high cushion, stable foam) to 5 (large bubbles, unstable foam), and a foam volume equal to 32% of the foam for a standard surfactant (see FIG. 1).

Consider “Isosorbide Lauroylester Sulfosuccinate [Example 1]”, for which the foam volume is given as 32 % of the foam for a standard surfactant. Also, where the note is “visual evaluation, scale of 1 (small bubbles, high cushion, stable foam) to 5 (large bubbles, unstable foam)”, the foam quality is given as 4-5.
